# Results reported in US20070015723A1, “Antiviral oligonucleotides having a conserved G4 core sequence” (priority 1992, published 2007).
# Values joined by “and” are separate entries in the source; they are usually repeats but may differ in a detail not shown here. Equal entries are not always repeated.
# What was measured:
# HSV-1 (KOS) = experiment: HSV-1 infection ELISA assay; format: cell-based
# [1] = target: T1, human type II phospholipase A2 (Homo sapiens, UniProt P14555); experiment: Human type II phospholipase A2 enzyme assay (3H-oleic acid labelled E. coli substrate); format: biochemical; settings: 1 μM; Table 5, two separate experiments
# T1 sequence (P14555 21-144): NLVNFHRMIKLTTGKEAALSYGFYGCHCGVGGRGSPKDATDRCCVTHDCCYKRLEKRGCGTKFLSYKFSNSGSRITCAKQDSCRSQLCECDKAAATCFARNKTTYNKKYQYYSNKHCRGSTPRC
# HIV-1IIIB = experiment: Acute HIV infection assay (XTT, CEM cells); settings: inhibition of HIV
# [2] = 50% inhibition of HSV replication relative to control infected cells, Table 1
# [3] = HSV-1 (KOS strain), Table 9, some in duplicate
Substance,EC50 (HSV-1 (KOS); [2]),IC50 (HIV-1IIIB) [nM],also measured
"ISIS 4672: GGG T GGG T ATA G, P = S, SEQ ID NO 50 (GGGTGGGTATAG; all phosphorothioate, sugars by position not given here)",200 nM,,% Inhibition (1 μM) [1]: 73.9% and 94.6%
"ISIS 5668: TT GGGG TT GGGG, P = O, SEQ ID NO 57 (TTGGGGTTGGGG; all phosphodiester, sugars by position not given here)",,> 21000,TC50 (CEM cell line): 5.2 µM
"ISIS 4897: CAC GGG GTC GCC GAT, P = S, SEQ ID NO 31 (CACGGGGTCGCCGAT; all phosphorothioate, sugars by position and methylation of C not given here)",130 nM,430,
"ISIS 5590: GGGG TT GGGG, P = O, SEQ ID NO 46 (GGGGTTGGGG; all phosphodiester, sugars by position not given here)",> 3000 nM,> 25000,TC50 (CEM cell line): 20 µM
"ISIS 5667: TT GGGG TT GGGG TT, P = O, SEQ ID NO 56 (TTGGGGTTGGGGTT; all phosphodiester, sugars by position not given here)",,> 22000,TC50 (CEM cell line): 5.6 µM
"ISIS 4873: CAT GAC CGG GGC, P = S, SEQ ID NO 4 (CATGACCGGGGC; all phosphorothioate, sugars by position and methylation of C not given here)",1400 nM and 1000 nM,1000,
"ISIS 4111: CCTGGATGATGCTGGGGTAC, phosphorothioate, SEQ ID NO 131 (CCTGGATGATGCTGGGGTAC; antisense; all phosphorothioate, sugars by position and methylation of C not given here)",,,EC50 (HSV-1 (KOS); [3]): 600 nM
"ISIS 5295: GTT GGA GAC CGG GIT TGG GG, Inosine #14, SEQ ID NO 138 (GTT GGA GAC CGG GITTGG GG; inosine at 14, as printed in the source, key not given here)",,,"EC50 (HSV-1 (KOS); Table 12, inosine-substituted): > 3000 nM"
"ISIS 4882: CAT GGC GGG ACT ACG, P = S, SEQ ID NO 9 (CATGGCGGGACTACG; all phosphorothioate, sugars by position and methylation of C not given here)",1700 nM and 1400 nM,,
"ISIS 4664: GGG T GGG T ATA G AAG G GC, P = S, SEQ ID NO 48 (GGGTGGGTATAGAAGGGC; all phosphorothioate, sugars by position and methylation of C not given here)",200 nM,,
"ISIS 4350: GACGGTCAAGGGGAGGGTTGG, phosphorothioate, SEQ ID NO 129 (GACGGTCAAGGGGAGGGTTGG; all phosphorothioate, sugars by position and methylation of C not given here)",,,EC50 (HSV-1 (KOS); [3]): 250 nM
"ISIS 5296: GTT GGA GAC CGG GGT TGG IG, Inosine #19, SEQ ID NO 139 (GTT GGA GAC CGG GGTTGG IG; inosine at 19, as printed in the source, key not given here)",,,"EC50 (HSV-1 (KOS); Table 12, inosine-substituted): 800 nM"
"ISIS 4925: GTT GGA GAC CGG IGT TGG IG, Inosine #13, 19, SEQ ID NO 137 (GTT GGA GAC CGG IGTTGG IG; inosine at 13, 19, as printed in the source, key not given here)",,,"EC50 (HSV-1 (KOS); Table 12, inosine-substituted): 1600 nM"
"ISIS 4896: GC CGA TGC GGG G, P = S, SEQ ID NO 20 (GCCGATGCGGGG; all phosphorothioate, sugars by position and methylation of C not given here)",1200 nM,,
"ISIS 4694: TA G AAG GGC TCC, P = S, SEQ ID NO 53 (TAGAAGGGCTCC; all phosphorothioate, sugars by position and methylation of C not given here)",> 3000 nM,,
"ISIS 5365: GA GAC CGG GGT TGG GG, P = S, SEQ ID NO 23 (GAGACCGGGGTTGGGG; all phosphorothioate, sugars by position and methylation of C not given here)",470 nM,,
